Laboratory results as given in PMC10222279, “Detection of Acetaminophen in Groundwater by Laccase-Based Amperometric Biosensors Using MoS2 Modified Carbon Paper Electrodes” (Sensors (Basel, Switzerland), 2023).

Test system: T1, TvL
T1 construct: gene LCC2
Conditions: read-out: KMapp / Free; free enzyme; assay as for activity: 50 mM citric/phosphate buffer pH 4, 420 nm; unit not in table grid, µM
Source text: ABTS oxidation kinetics, non-linear Michaelis-Menten fit on TvL

Km: 42.1 ± 3.14 µM
SMILES: CCn1c(=NN=c2sc3cc(S(=O)(=O)O)ccc3n2CC)sc2cc(S(=O)(=O)O)ccc21 [ABTS, 2,2′-azino-bis(3-ethylbenzthiazoline-6-sulphonic acid)]
